The structures appear in SMILES notation.

These results are taken from US7855215B2, “Cyclic diaryl ureas suitable as tyrosine kinase inhibitors” (Novartis AG, priority 2004, dated 2010).

The melting point is the temperature of the solid-liquid transition.

As for `CNc1cc(Oc2ccc3c(c2)CCCN3C(=O)Nc2ccc(C(C)(C)C)cc2)ncn1` [Example 3, 6-(6-Methylamino-pyrimidin-4-yloxy)-3,4-dihydro-2H-quinoline-1-carboxylic acid (4-tert.butyl-phenyl)-amide], the melting point lay within 175 to 176 °C.
Consider `Nc1nc(Cl)cc(Oc2ccc3c(c2)CCCCN3C(=O)Nc2cccc(C(F)(F)F)c2)n1` [Example 6, 7-(2-Amino-6-chloro-pyrimidin-4-yloxy)-2,3,4,5-tetrahydro-benzo[b]azepine-1-carboxylic acid (3-trifluoromethyl-phenyl)-amide], for which the melting point came to 175 °C.
In turn, `Nc1nccc(Oc2ccc3c(c2)CCCCN3C(=O)Nc2cccc(C(F)(F)F)c2)n1` [Example 7, 7-(2-Amino-pyrimidin-4-yloxy)-2,3,4,5-tetrahydro-benzo[b]azepine-1-carboxylic acid (3-trifluoromethyl-phenyl)-amide] came in with a melting point of 207 °C.
`O=C(Nc1cccc(C(F)(F)F)c1)N1CCCCc2cc(Oc3cc(Cl)ncn3)ccc21` [Example 8, 7-(6-Chloro-pyrimidin-4-yloxy)-2,3,4,5-tetrahydro-benzo[b]azepine-1-carboxylic acid (3-trifluoromethyl-phenyl)-amide] showed a melting point of 120 °C.
Molecule `CN1CCN(CCCNc2cc(Oc3ccc4c(c3)CCN4C(=O)Nc3cccc(C(F)(F)F)c3)ncn2)CC1` [Example 18, 5-{6-[3-(4-Methylpiperazin-1-yl)-propylamino]-pyrimidin-4-yloxy}-2,3-dihydro-indole-1-carboxylic acid (3-trifluormethyl-phenyl)-amide] had a melting point of 163 °C.
The molecule `CC(C)Nc1cc(Oc2ccc3c(c2)CCN3C(=O)Nc2cccc(C(F)(F)F)c2)ncn1` [Example 19, 5-(6-Isopropylamino-pyrimidin-4-yloxy)-2,3-dihydro-indole-1-carboxylic acid (3-trifluormethyl-phenyl)-amide] displayed a melting point of 189 °C.
Regarding `CN1CCN(Cc2ccc(NC(=O)N3CCCc4cc(Oc5ccnc(N)n5)ccc43)cc2C(F)(F)F)CC1` [Example 33, 6-(2-Amino-pyrimidin-4-yloxy)-3,4-dihydro-2H-quinoline-1-carboxylic acid [4-(4-methyl-piperazin-1-ylmethyl)-3-trifluoromethyl-phenyl]-amide], the melting point was in the range of 120 to 123 °C.
Consider `CC(C)(CCC(=O)Nc1cc(Oc2ccc3c(c2)CCN3C(=O)Nc2ccc(N3CCOCC3)c(C(F)(F)F)c2)ncn1)[N+](=O)[O-]` [Example 38], for which the melting point fell in the range of 193 to 197 °C.
The molecule `CC(C)(N)CCC(=O)Nc1cc(Oc2ccc3c(c2)CCN3C(=O)Nc2ccc(N3CCOCC3)c(C(F)(F)F)c2)ncn1` [Example 39] had a melting point of 211 to 214 °C.
With `O=C(Nc1cc(Oc2ccc3c(c2)CCN3C(=O)Nc2ccc(N3CCOCC3)c(C(F)(F)F)c2)ncn1)c1cccnc1` [Example 40] the figure was 253 to 258 °C; with `COC(=O)Nc1cc(Oc2ccc3c(c2)CCN3C(=O)Nc2ccc(N3CCOCC3)c(C(F)(F)F)c2)ncn1` [Example 41], 206 to 209 °C.
The molecule `CN1CCN(C(=O)Nc2cc(Oc3ccc4c(c3)CCN4C(=O)Nc3ccc(N4CCOCC4)c(C(F)(F)F)c3)ncn2)CC1` [Example 42] gave a melting point of 175 to 177 °C.
In turn, `O=C(Nc1ccccc1)c1cc(Oc2ccc3c(c2)CCN3C(=O)Nc2cccc(C(F)(F)F)c2)ncn1` [Example 74, 5-(6-Phenylcarbamoyl-pyrimidin-4-yloxy)-2,3-dihydro-indole-1-carboxylic acid (3-trifluoromethyl-phenyl)-amide] had a melting point of 227 to 229 °C.
